Measured values from patent US10689335B2, “Hydrogen sulfide precursors and conjugates thereof” (Georgia State University Research Foundation, Inc., priority 2015, dated 2020).

What was measured:
[1] = tested on: TNF-α secretion in RAW 264.7 cells; experiment: Anti-inflammation study: TNF-α in LPS-stimulated RAW 264.7 cell culture supernatant (ELISA); type: cell-based; details: 1 hour co-treatment with 1 unit/mL esterase and 1 μg/mL LPS
Experimental: RAW 264.7 cells were seeded in the 48-well plate one day before the experiment. Lipopolysaccharide was added into the cell culture to initiate the inflammatory response in RAW 264.7 cells and to trigger the expression of cytokines. RAW 264.7 cells were co-treated with HPs (HP-101, HP-102, HP-103, HP-104) or iHPs, 1 unit/mL esterase and 1 μg/mL of LPS for 1 hour. Thereafter, the cell culture supernatant was collected. The concentrations of TNF-α in the cell culture supernatant was quantified by a commercial ELISA kit (ELISA Ready-SET-Go!®-eBioscience).

PLE [2] = experiment: Esterase-triggered release of H2S and parent drug from hybrid precursor (methylene blue method, HPLC); type: biochemical, pig; details: 200 μM in phosphate buffer pH 7.4, PLE 20 unit/mL, 37° C.
Experimental: To a 9.9 mL phosphate buffer (pH 7.4) solution was added 11.1 mg (200 unit) PLE, followed by the addition of 100 μL 20 mM HP-105 stock solution (final concentration: 200 μM). The resultant solution was sealed and stirred at 37° C. At every 30 min, 200 μL of reaction solution was taken into a 1.5 mL vial containing 200 μL zinc acetate (1%, w/v). Then the vial was centrifuged for 10 min. (14.5×1000 rp). The supernatant was removed and the precipitate was washed with PBS solution (100 μL×2). 600 μL of N,N-dimethyl-1,4-phenylenediaminesulfate (0.2% w/v in 20% H2SO4 solution) and 50 μL ferric chloride (10% w/v in 0.2% H2SO4 solution) was added to the vial. Then the vial was centrifuged for 5 min (14.5×1000 rp). The absorbance (at 740 nm) of the resulting solution was measured (after stirring for 10 min). H2S concentration was calculated based on a calibration curve of NaHS. (FIG. 7A).

PLE [3] = experiment: H2S concentration measurement by electrode probe ISO-H2S-2 in phosphate buffer with esterase; type: biochemical, pig; details: 200 μM precursor in PBS at 37° C. with 1 unit/mL PLE
Experimental: HPs (compounds HP-101, HP-102, HP-103, HP-104; final concentration=200 μM) were added to an incubation chamber (World Precision Instruments; WPI) containing phosphate buffer (10 mM; pH 7.4, 10 mL), and esterase (1 unit/mL) at 37° C. H2S formation was detected with the use of a 2-mm H2S-selective microelectrode (ISO-H2S-2; WPI) attached to an Apollo 1100 Free Radical Analyser (WPI) and shown as picoamps current generated. A standard curve (using Na2S.9H2O) was generated by following literature procedures, but using PBS containing esterase at 37° C. (FIG. 4).
H2S release from these precursors was studied (FIG. 4). […] For 200 μM of the precursor compound in PBS at 37° C. with 1 unit/mL PLE, the peak H2S concentration for the fastest one, HP-101, was about 95 μM at 15 min; and for the slowest one, HP-104, it was about 13 μM at 43 min.

[4] = tested on: esterases produced by the cells; experiment: H2S release from HP-101 in cell culture media (ISO-H2S-2 electrode); details: 200 μM, 37° C.
Experimental: The in vitro release of H2S from HP-101 was studied under various conditions such as HP-101 (200 μM) in DMEM media (5 mL), cell+DMEM media without FBS, and cell+DMEM media with FBS.
HP-101 (200 μM) was added to an incubation chamber (World Precision Instruments; WPI) containing cell culture media (10 mL) at 37° C. H2S formation was detected with the use of an ISO-H2S-2 probe attached to an Apollo 1100 Free Radical Analyser and shown as picoamps current generated. A standard curve (using Na2S.9H2O) was also generated under the same conditions.

porcine liver esterase = experiment: Esterase-induced H2S release detected with fluorescent probe WSP-5; type: biochemical; details: 200 μM, porcine liver esterase 4 u/mL in PBS at 37° C.
Experimental: The ability of esterases to release hydrogen sulfide, as shown in Scheme 17, was examined using a well-known hydrogen sulfide fluorescent probe WSP-5 (3-oxo-3H-spiro[isobenzofuran-1,9′-xanthene]-3′,6′-diyl bis(2-(pyridin-2-yldisulfanyl)benzoate) to detect its production in the hydrogen sulfide precursor (HP) reaction mixture. A 200 μM solution of HP 10 was treated with porcine liver esterase (Aldrich, E2884), 4 u/mL) in PBS at 37° C., then 5 μL reaction mixture was taken into 995 μL acetonitrile and detected using WSP-5. The results are shown in FIG. 1 which indicate that HP 10 releases H2S in phosphate buffer saline with 4 units of esterase.
Because of the high volatility of H2S, when the escape rate is greater than formation rate, the concentration decreases. The peak concentration of H2S also appeared within about 25 min.
HP-101 (final concentration: 200 μM) or other control compounds were added to PBS (10 mL) buffer containing esterase (1 unit/mL) at 37° C. After 15 minutes, aliquots of 100 μL samples were taken out and added into 100 μL PBS containing 50 μM WSP-5 and 100 μM CTAB in 96-well plate. After mixing and standing for 5 min at room temperature, the fluorescent intensities at 535 nm were recorded by a plate reader with excitation at 485 nm. (FIG. 1). […]

esterase = experiment: Esterase triggered lactone formation monitored by LC-MS/MS; type: biochemical
Experimental: The release of hydrogen sulfide and its release rate were detected using LC-MS. A 200 μM HP 10 reaction mixture was treated with esterase for 25 min which led to formation of more than 180 μM of the lactone product as shown in FIG. 2.
HP-101 (final concentration: 200 μM) was added to PBS (10 mL) with 1 unit/mL esterase at 37° C. Reaction mixture (10 μL) was taken out every 3 minutes and added into a vial containing 990 μL methanol at −78° C. for 5 minutes. The mixture (14.5×1000 rp) was centrifuged, and the supernatant was used as the sample for LC-MS/MS analysis (Agilent 1100 LC, 6410 TripleQ MS/MS, Ion transition: 205.0/135.0, positive mode).

In the case of `[Na+].[Na+].[S-2]` [Na2S], the “effect on TNF-α secretion” value [1] is reported as “pro-inflammatory effect”.

For `COc1ccc2cc([C@H](C)C(=O)Oc3cc(C)cc(C)c3C(C)(C)CC([O-])=S)ccc2c1.[Na+]` [HP-105, Sodium (S)-3-(2-((2-(6-methoxynaphthalen-2-yl)propanoyl)oxy)-4,6-dimethylphenyl)-3-methylbutanethioate], the “generation of naproxen and H2S by treatment with an esterase” value (PLE [2]) was “could generate naproxen and H2S”.

`CC(=O)Oc1cc(C)cc(C)c1C(C)(C)CC(=O)[S-].[Na+]` [HP-101, Sodium 3-(2-acetoxy-4,6-dimethylphenyl)-3-methylbutanethioate] was tested, and the “peak H2S concentration” value (PLE [3]) was “about 95 μM”, the “time of peak H2S concentration” value (PLE [3]) was 15 min and the “H2S release in media collected after overnight of cell culture” value [4] was “released at a moderate rate”. For the same compound, the “H2S release in DMEM alone” value ([4]; DMEM media without cells) was “did not release H2S”.

For `C1COCCN1.COc1ccc(P(=S)(S)N2CCOCC2)cc1` (stereo not shown) [GYY 4137], the “effect on TNF-α secretion” value [1] was “effectively inhibited TNF-α secretion”.

In the case of `CC(=O)Oc1cc(C)cc(C)c1C(C)(C)CC(=O)S` [HP 10, 3-(2-acetoxy-4,6-dimethylphenyl)-3-methylbutanethioic S-acid], the “H2S release detected using WSP-5” value (porcine liver esterase) is reported as “releases H2S”, the lactone product formed (esterase; 200 μM reaction mixture treated with esterase for 25 min) is reported as “more than 180 μM” and the H2S released (esterase; 200 μM, esterase, 25 min, inferred from lactone formed) is reported as “more than 90%”.
